Patent publication US8119355B2, “Biomarkers for cancer sensitivity and uses thereof” (The UAB Research Foundation, priority 2006, dated 2012)

Columns and labels:
[1] = system: COLO 205 tumors; test: COLO 205 xenograft model, tumor size; format: in vivo, athymic nude mice; details: TRA-8 10 mg/kg intraperitoneally days 16 and 20; CPT-11 33 mg/kg intravenously days 17 and 21
Method: Preparation of sera from tumor-bearing mice. COLO 205 cells (1×10^7) were inoculated subcutaneously into athymic nude mice on day 0. The mice were grouped randomly. Each of the groups consisted of 3 mice. TRA-8 (10 mg/kg) was administered intraperitoneally to mice on days 16 and 20. CPT-11 (33 mg/kg) was administered intravenously to mice on days 17 and 21. Length and width of solid tumors were measured twice weekly. Tumor volume (mm^3) was calculated as axb^2/2, where a and b are the length and the width (mm) of the tumor, respectively. Tumor size was determined as a percentage relative to the tumor volume on day 16. Sera were obtained from the tumor-bearing mice on day 23.

[2] = system: COLO 205 human colon cancer cells; test: cell viability, ATPLite assay, serum-free condition; format: cell-based; details: for effect on cell viability: 48 h; for cells killed: incubation time (24 or 48 h) not given
Method: (§1) Cell viability analysis: To examine the effect of the serum, the cells (2×10^4) were plated onto well of a 96-well microplate and cultured in complete culture medium at 37° C. for 24 h, washed with serum-free medium, and further incubated in 100 μl of complete medium or serum-free medium at 37° C. for the indicated times. Cell viability was assessed by measurement of cellular ATP levels using ATPlite™-M luminescence assay system (PerkinElmer, Inc., Waltham, Mass.) according to the manufacturer's instructions, and determined as a percentage relative to the luminescence value of cells, which were cultured in complete medium, used as a control. The assay of cell viability was repeated in triplicate experiments. Data were statistically analyzed by the Student t test. In case of the Student t test, if variance of homogeneity was rejected (P<0.05 by F test), the Welch test was applied. Probability values (P-values) less than 0.05 were considered to be statistically significant. All P-values were rounded to four decimal places.
(§2) To evaluate the effect of TRA-8 in serum-free condition, the cells were cultured as described above, washed with serum-free medium and treated with or without TRA-8 or chemotherapeutic agents in 100 μl of serum-free medium at 37° C. for the indicated times. Cell viability was assessed using ATPLite™ assay (PerkinElmer, Inc., Waltham, Mass.) and determined as a percentage relative to the luminescence value of untreated cells used as a control. The assay of cell viability was repeated in triplicate experiments.

[3] = system: WiDr human colon cancer cells; test: as above; format: cell-based; details: for cells killed: incubation time (24 or 48 h) not given
Method: as §1, §2

| Structure (SMILES) | antitumor efficacy (tumor size) [1] | effect on cell viability ([2]; 50 μM agent) | cells killed ([2]; 50 μM agent) [%] | effect on cell viability ([3]; 50 μM oxaliplatin, 24 h) | effect on cell viability ([3]; 50 μM oxaliplatin, 48 h) | cells killed ([3]; 50 μM oxaliplatin) [%] | effect on cell viability ([2]; 1 μM paclitaxel) | cells killed ([2]; 1 μM paclitaxel) [%] | effect on cell viability ([3]; 1 μM paclitaxel, 48 h) | cells killed ([3]; 1 μM paclitaxel) [%] |
| --- | --- | --- | --- | --- | --- | --- | --- | --- | --- | --- |
| CCc1c2c(nc3ccc(OC(=O)N4CCC(N5CCCCC5)CC4)cc13)-c1cc3c(c(=O)n1C2)COC(=O)[C@]3(O)CC [CPT-11] | not antitumor effects | significant effect | 71 |  |  |  |  |  |  |  |
| O=C1[O][Pt]2([NH][C@@H]3CCCC[C@H]3[NH]2)[O]C1=O [oxaliplatin] |  | affected cell viability | 41 | significant effect | affected cell viability | 99 |  |  |  |  |
| CC(=O)O[C@H]1C(=O)[C@@]2(C)[C@H]([C@H](OC(=O)c3ccccc3)[C@]3(O)C[C@H](OC(=O)[C@H](O)[C@@H](NC(=O)c4ccccc4)c4ccccc4)C(C)=C1C3(C)C)[C@]1(OC(C)=O)CO[C@@H]1C[C@@H]2O [paclitaxel] |  |  |  |  |  |  | affected cell viability | 62 | affected cell viability | 72 |
